From patent US5985837A, “Dolastatin 15 derivatives” (BASF Aktiengesellschaft, priority 1998, dated 1999)
pIC50: −log10 of the molar value.

How the values were obtained:
[1] = tested on: tumor cells such as the HT-29 colon carcinoma or LX-1 lung tumor; experiment: Cytotoxicity, microculture tetrazolium assay (MTT); type: cell-based; conditions: 48 hours incubation, concentration giving T/C of 50% growth inhibition, cell line not given
Protocol: Cytotoxicity was measured using a standard methodology for adherent cell lines, such as the microculture tetrazolium assay (MTT). Details of this assay have been published (Alley, M. C. et al., Cancer Research 48:589-601, 1988). Exponentially growing cultures of tumor cells such as the HT-29 colon carcinoma or LX-1 lung tumor were used to make microtiter plate cultures. Cells were seeded at 5000-20,000 cells per well in 96-well plates (in […] of media), and grown overnight at 37° C. Test compounds were added, in 10-fold dilutions varying from 10^-4 M to 10^-10 M. Cells were then incubated for 48 hours. To determine the number of viable cells in each well, the MTT dye was added ([…] of a 3 mg/mL solution of 3-(4,5-dimethylthiazol-2-yl)-2,5-diphenyltetrazolium bromide in saline). This mixture was incubated at 37° C. for 5 hours, and then […] of 25% SDS, pH 2, was added to each well. After an overnight incubation, the absorbance of each well at 550 nm was read using an ELISA reader. The values for the mean ±SD of data from replicated wells were calculated, using the formula % T/C (% viable cells treated/control). The concentration of test compound which gives a T/C of 50% growth inhibition was designated as the IC50.

[2] = tested on: National Cancer Institute's P388 lymphocytic leukemia (PS system) cell line; conditions: background statement; cited from earlier work
[3] = background statement on Dolastatin 15; cited from earlier work

Row | Compound | pIC50 [1] | inhibition of cell growth [2] | solubility in aqueous systems [3]
1 | 2-(Me2 Val-Val-MeVal-Pro-NH)--C6 H4 --CO--CH3 [IV-1] | < 6.00 |  | 
2 | CNC(=O)c1ccccc1NC(=O)[C@@H]1CCCN1C(=O)[C@H](C(C)C)N(C)C(=O)[C@@H](NC(=O)[C@H](C(C)C)N(C)C)C(C)C [Compound I-1, 2-(Me2 Val-Val-MeVal-Pro-NH)--C6 H4 C(O)NHCH3] | 6.40 |  | 
3 | CC(C)[C@H](NC(=O)[C@H](C(C)C)N(C)C)C(=O)N(C)[C@H](C(=O)N1CCC[C@H]1C(=O)Nc1ccccc1C(=O)NCc1ccccc1)C(C)C [Compound I-2, 2-(Me2 Val-Val-MeVal-Pro-NH)--C6 H4 C(O)NHCH2 C6 H5] | < 6.00 |  | 
4 | CC(C)NC(=O)c1ccccc1NC(=O)[C@@H]1CCCN1C(=O)[C@H](C(C)C)N(C)C(=O)[C@@H](NC(=O)[C@H](C(C)C)N(C)C)C(C)C [Compound I-3, 2-(Me2 Val-Val-MeVal-Pro-NH)--C6 H4 C(O)NHCH(CH3)2] | 6.30 |  | 
5 | CC(C)[C@H](NC(=O)[C@H](C(C)C)N(C)C)C(=O)N(C)[C@H](C(=O)N1CCC[C@H]1C(=O)Nc1ccccc1C(=O)Nc1ccccc1)C(C)C [Compound I-4, 2-(Me2 Val-Val-MeVal-Pro-NH)--C6 H4 C(O)NHC6 H5] | 6.40 |  | 
6 | CC(C)[C@H](NC(=O)[C@H](C(C)C)N(C)C)C(=O)N(C)[C@H](C(=O)N1CCC[C@H]1C(=O)Nc1ccccc1C(=O)Nc1nccs1)C(C)C [Compound I-5, 2-(Me2 Val-Val-MeVal-Pro-NH)--C6 H4 C(O)NH(thiazol-2-yl)] | 6.82 |  | 
7 | CNC(=O)c1cc(OC)c(OC)cc1NC(=O)[C@@H]1CCCN1C(=O)[C@H](C(C)C)N(C)C(=O)[C@@H](NC(=O)[C@H](C(C)C)N(C)C)C(C)C [Compound I-6, 2-(Me2 Val-Val-MeVal-ProNH)-4,5-bis(methoxy)C6 H2 C(O)NHCH3] | 6.70 |  | 
8 | CON(C)C(=O)c1ccccc1NC(=O)[C@@H]1CCCN1C(=O)[C@H](C(C)C)N(C)C(=O)[C@@H](NC(=O)[C@H](C(C)C)N(C)C)C(C)C [Compound I-60, (2)-(Me2 Val-Val-MeVal-Pro-NH)-C6 H4 -CON(CH3) (OCH3)] | 6.40 |  | 
9 | CC(C)[C@H](NC(=O)[C@H](C(C)C)N(C)C)C(=O)N(C)[C@H](C(=O)N1CCC[C@H]1C(=O)Nc1ccccc1C(=O)N1CCC(c2ccccc2)O1)C(C)C (stereo partly drawn) [Compound I-64, 2-(Me2 Val-Val-MeVal-Pro-NH)--C6 H4 --CO--N(--(CH2)2 --CH(C6 H5)O--)] | 6.60 |  | 
10 | CC(C)[C@H](NC(=O)[C@H](C(C)C)N(C)C)C(=O)N(C)[C@H](C(=O)N1CCC[C@H]1C(=O)Nc1ccccc1C(=O)NCCCO)C(C)C [Compound I-86, 2-(Me2 Val-Val-MeVal-Pro-NH)--C6 H4 --CO--NH(--(CH2)3 --OH)] | 6.22 |  | 
11 | CC(C)[C@H](NC(=O)[C@H](C(C)C)N(C)C)C(=O)N(C)[C@H](C(=O)N1CCC[C@H]1C(=O)Nc1ccccc1C(=O)NCCC(O)c1ccccc1)C(C)C (stereo partly drawn) [Compound I-87, 2-(Me2 Val-Val-MeVal-Pro-NH)--C6 H4 C(O)NH((CH2)2 CH(C6 H5)OH)] | 6.70 |  | 
12 | CNC(=O)c1cccc(NC(=O)[C@@H]2CCCN2C(=O)[C@H](C(C)C)N(C)C(=O)[C@@H](NC(=O)[C@H](C(C)C)N(C)C)C(C)C)c1 [II-1, 3-(Me2 Val-Val-MeVal-Pro-NH)--C6 H4 --CO--NHCH3] | < 6.00 |  | 
13 | CC(C)[C@H](NC(=O)[C@H](C(C)C)N(C)C)C(=O)N(C)[C@H](C(=O)N1CCC[C@H]1C(=O)Nc1cccc(C(=O)NCc2ccccc2)c1)C(C)C [II-2, 3-(Me2 Val-Val-MeVal-Pro-NH)--C6 H4 --CO--NH CH2 C6 H5] | < 6.00 |  | 
14 | CC(C)[C@H](NC(=O)[C@H](C(C)C)N(C)C)C(=O)N(C)[C@H](C(=O)N1CCC[C@H]1C(=O)Nc1ccccc1C(=O)c1ccccc1)C(C)C [IV-15, 2-(Me2 Val-Val-MeVal-Pro-NH)--C6 H4 --CO--C6 H5] | 7.15 |  | 
15 | Dolastatin 15 |  | markedly inhibits the growth | poor solubility in aqueous systems
